Experiment [1] addresses T1, Human phosphodiesterase-4B1 (Homo sapiens, UniProt Q07343).
T1 construct: host or cells: Sf9 cells
As to the kind of experiment: PDE4B1 (h) assay. In kind it is biochemical. As for the experimental part:
(§1) The test compound (compound 72), reference compound or water (control) were added to a buffer containing 40 mM Tris/HCl (pH 7.4) and 8 mM MgCl2, 450 nM cAMP and 0.25 μCi [3H]cAMP. Thereafter, the reaction was initiated by addition of the enzyme (about 10 U) and the mixture was incubated for 20 min at 22° C. For basal control measurements, the enzyme was omitted from the reaction mixture. Following incubation SPA beads were added. After 30 min at 22° C. under shaking, the amount of [3H]5′AMP was quantified with a scintillation counter (MicroBeta, Perkin Elmer). The results were expressed as a percent inhibition of the control enzyme activity. The standard inhibitory reference compound was Ro 20-1724, which was tested in each experiment at several concentrations to obtain an inhibition curve from which its IC50 value was calculated. • Human phosphodiesterase-4B1 quantified by measuring the formation of 5′AMP from cAMP using a human recombinant enzyme expressed in Sf9 cells.
The test compound (compound 72), reference compound or water (control) were added to a buffer containing 40 mM Tris/HCl (pH 7.4), 8 mM MgCl2 and 1.7 mM EGTA/NaOH, 450 nM cAMP and 0.25 μCi [3H]cAMP. […] After 30 min at 22° C. under shaking, the amount of [3H]5′AMP was quantified with a scintillation counter (MicroBeta, Perkin Elmer). The results were expressed as a percent inhibition of the control enzyme activity. […]

Experiment [2] has as its system stimulated primary human T cells. As to the kind of experiment: T cell proliferation assay (rescue of proliferation in presence of 100 uM ATP). In kind it is cell-based. As for the experimental part: Purpose. The aim of this study was to determine the potency of equilibrative nucleoside transporter 1 (ENT1) inhibitors to rescue proliferation by stimulated primary human T cells incubated in the presence of 100 uM Adenosine triphosphate (ATP) with: • Condition A: X-VIVO15 • Condition B: X-VIVO15, 2% Human Serum Albumine (HSA) and 0.1% α-1-Acid Glycoprotein (AAG)
Method. Cryopreserved purified human CD3+ T cells were thawed and washed twice with RPMI1640 medium, UltraGlutamine containing 10% hiFBS.
Cells were suspended in PBS containing 10% hiFBS. Cells were stained with CFSE by adding 2 μM solution in PBS, to get a final 1 μM CFSE solution. Cells were incubated while rotating for 5 minutes. Reaction was stopped by adding PBS with 10% FBS and cells were centrifuged for 5 minutes at 1500 rpm.
Cells were resuspended at 1.6×10^6 cells/mL, either in X-VIVO15 medium or in 4% Human Serum Albumin and 0.2% α-1-Acid Glycoprotein. 50 μL of cell suspension (8×10^4 T cells) was added to wells of sterile round-bottom 96-well plates. Cells were activated by adding 50 μL of anti-CD3 anti-CD28 coated microbeads, suspended either in XVIVO-15 medium or in 4% HSA and 0.2% α-1-Acid Glycoprotein, at a ratio of one microbead per two cells.
Serial dilutions of the ENT1 inhibitors were prepared in X-VIVO15 from 10 mM stock solutions in DMSO, and 50 μL was added to the wells.
ATP powder was diluted in X-VIVO15, and 50 μL of this compound was added to the wells to reach a final assay concentration of 100 μM. Final volume of 200 μL.
The experiments were also performed in 384 well plates—all volumes reduced by a factor of 4 ([…]) with a final volume of 50 μL.
Experiments were performed in duplicate. The cells were placed in a 37° C. humidified tissue culture incubator with 5% CO2 for 72 hours for 96 well plates, 96 hours for 384 well plates. After 72 or 96 hours, proliferation was measured determined by CFSE dilution via flow cytometry.
Results. Compounds of the invention have good ENT1 inhibitory properties.

The target in experiment [3] is T2, Human phosphodiesterase-4D2 (Homo sapiens, UniProt Q08499).
T2 construct: host or cells: Sf9 cells
T2 sequence (Q08499 303-809 limits assumed): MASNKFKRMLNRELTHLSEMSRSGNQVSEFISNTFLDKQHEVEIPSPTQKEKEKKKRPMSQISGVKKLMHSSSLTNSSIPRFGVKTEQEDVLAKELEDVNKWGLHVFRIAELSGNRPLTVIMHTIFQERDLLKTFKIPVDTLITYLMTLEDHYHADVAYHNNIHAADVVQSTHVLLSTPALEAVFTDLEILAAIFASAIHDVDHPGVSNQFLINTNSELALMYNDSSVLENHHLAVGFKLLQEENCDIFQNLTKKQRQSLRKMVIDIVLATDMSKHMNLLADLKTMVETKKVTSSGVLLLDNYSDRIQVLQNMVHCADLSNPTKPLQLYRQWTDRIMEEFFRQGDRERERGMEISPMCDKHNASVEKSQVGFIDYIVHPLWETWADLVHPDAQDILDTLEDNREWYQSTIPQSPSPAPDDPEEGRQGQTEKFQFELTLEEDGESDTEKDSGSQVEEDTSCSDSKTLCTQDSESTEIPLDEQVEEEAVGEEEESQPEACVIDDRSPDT
Description: PDE4D2 (h) assay. In kind it is biochemical. As for the experimental part: as §1, with “7.4),” for “7.4) and”, “MgCl2 and 1.7 mM EGTA/NaOH,” for “MgCl2,”, “1.2” for “10”, “phosphodiesterase-4D2” for “phosphodiesterase-4B1”
The test compound (compound 72), reference compound or water (control) were added to a buffer containing 40 mM Tris/HCl (pH 7.4) and 8 mM MgCl2, 450 nM cAMP and 0.0125 μCi [3H]cAMP. […] After 30 min at 22° C. under shaking, the amount of [3H]5′AMP was quantified with a scintillation counter (Topcount, Packard). The results were expressed as a percent inhibition of the control enzyme activity. […]

The record followed here is patent publication US20230146675A1, “PYRIMIDO[5,4-d]PYRIMIDINE DERIVATIVES AS ENT INHIBITORS FOR THE TREATMENT OF CANCERS, AND COMBINATION THEREOF WITH ADENOSINE RECEPTOR ANTAGONISTS” (ITEOS BELGIUM SA, priority 2020, published 2023).

Like-named read-outs stand apart in the source and are kept apart here.

T1 sequence (Q07343 whole entry): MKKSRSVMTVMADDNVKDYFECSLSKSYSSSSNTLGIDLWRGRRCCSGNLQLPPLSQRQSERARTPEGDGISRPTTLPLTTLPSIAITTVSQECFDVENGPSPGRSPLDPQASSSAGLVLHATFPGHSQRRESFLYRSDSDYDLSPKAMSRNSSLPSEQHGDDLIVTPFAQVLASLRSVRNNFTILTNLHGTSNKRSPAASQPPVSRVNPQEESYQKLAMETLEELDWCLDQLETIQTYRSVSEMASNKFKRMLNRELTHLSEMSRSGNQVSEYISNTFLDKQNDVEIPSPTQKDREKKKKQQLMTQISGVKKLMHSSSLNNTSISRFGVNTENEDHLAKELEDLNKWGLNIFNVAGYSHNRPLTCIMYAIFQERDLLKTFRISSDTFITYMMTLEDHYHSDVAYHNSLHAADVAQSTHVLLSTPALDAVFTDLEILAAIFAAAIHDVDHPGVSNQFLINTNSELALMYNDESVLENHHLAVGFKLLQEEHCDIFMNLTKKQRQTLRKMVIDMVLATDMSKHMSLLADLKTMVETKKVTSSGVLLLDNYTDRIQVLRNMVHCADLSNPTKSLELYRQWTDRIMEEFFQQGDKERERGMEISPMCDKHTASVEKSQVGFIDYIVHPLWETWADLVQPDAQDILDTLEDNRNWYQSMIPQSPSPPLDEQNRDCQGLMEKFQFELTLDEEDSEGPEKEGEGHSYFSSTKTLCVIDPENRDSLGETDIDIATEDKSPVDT

On to `COCCN(CCOC)c1nc(N2CCN(C)C(=O)C2)c2nc(N(CCOC)CCOC)nc(N3CCC(OC)CC3)c2n1` [Compound 72, 4-(2,6-bis(bis(2-methoxyethyl)amino)-8-(4-methoxypiperidin-1-yl)pyrimido[5,4-d]pyrimidin-4-yl)-1-methylpiperazin-2-one], for which the IC50 in experiment [1] was 1000 to 10000 nM; in experiment [2] (Condition A: X-VIVO15, read-out: TCell proliferation (Condition A) IC50) it was 100 to 500 nM; in experiment [2] (Condition B: X-VIVO15, 2% HSA and 0.1% AAG, read-out: TCell proliferation (Condition B) IC50), 100 to 500 nM; in experiment [3] it was 1000 to 10000 nM.
